# Patent US20240358748A1, “AMORPHOUS DISPERSION OF FERRIC MALTOL AND THE PREPARATION PROCESS THEREOF” (Indena S.P.A., priority 2021, published 2024)
# Experiment: Accelerated stability study (solid form checked by X-ray powder diffraction)
# Assay type: physicochemical
# Details: after 12 days at room temperature and relative humidity of 75%±5%
# Procedure: The X-ray diffraction pattern was recorded on a Bruker D2-Phaser diffractometer. The X-ray generator was set to 30 kV and 10 mA, using Cuk as radiation source. The sample was prepared in a sample holder and irradiated for an irradiation length of 10 mm. The data were recorded between 2 and 50 2θ degrees every 0.02 2θ degrees, with a recording time of 3 seconds per 2θ degree.
# The amorphous solid dispersion prepared according to Example 1, and ferric maltol in amorphous form, prepared according to the procedure reported in Example 1 but without the addition of Soluplus®, underwent an accelerated stability study.
smiles,measurement,setting,value
"Cc1occc(=O)c1[O-].Cc1occc(=O)c1[O-].Cc1occc(=O)c1[O-].[Fe+3] [ferric maltol in amorphous form, 3-hydroxy-2-methyl-4H-pyran-4-one: iron (III) (3:1)]",solid form after storage (X-ray diffractogram),,attributable to ferric maltol Form I
same,solid form after storage (X-ray diffractogram),listed as ferric maltol,"tends to be converted, at least partly, to a crystalline structure"
